According to ChEMBL document CHEMBL4477262, “Non-canonical modulators of nuclear receptors” (Bioorg Med Chem Lett, 2016):
Peptide text beside a SMILES is read from it.

How the values were obtained:
Androgen receptor/PELP1 = Androgen receptor/PELP1 (Homo sapiens, UniProt P10275+Q8IZL8); assay: Inhibition of full length AR/PELP1 (unknown origin) interaction expressed in human LNCaP cells preincubated for 2 hrs followed by DHT addition measured after 24 hrs by Western blot analysis; format: cell-based
Chain of Androgen receptor/PELP1 (Q8IZL8 whole entry, one chain of several): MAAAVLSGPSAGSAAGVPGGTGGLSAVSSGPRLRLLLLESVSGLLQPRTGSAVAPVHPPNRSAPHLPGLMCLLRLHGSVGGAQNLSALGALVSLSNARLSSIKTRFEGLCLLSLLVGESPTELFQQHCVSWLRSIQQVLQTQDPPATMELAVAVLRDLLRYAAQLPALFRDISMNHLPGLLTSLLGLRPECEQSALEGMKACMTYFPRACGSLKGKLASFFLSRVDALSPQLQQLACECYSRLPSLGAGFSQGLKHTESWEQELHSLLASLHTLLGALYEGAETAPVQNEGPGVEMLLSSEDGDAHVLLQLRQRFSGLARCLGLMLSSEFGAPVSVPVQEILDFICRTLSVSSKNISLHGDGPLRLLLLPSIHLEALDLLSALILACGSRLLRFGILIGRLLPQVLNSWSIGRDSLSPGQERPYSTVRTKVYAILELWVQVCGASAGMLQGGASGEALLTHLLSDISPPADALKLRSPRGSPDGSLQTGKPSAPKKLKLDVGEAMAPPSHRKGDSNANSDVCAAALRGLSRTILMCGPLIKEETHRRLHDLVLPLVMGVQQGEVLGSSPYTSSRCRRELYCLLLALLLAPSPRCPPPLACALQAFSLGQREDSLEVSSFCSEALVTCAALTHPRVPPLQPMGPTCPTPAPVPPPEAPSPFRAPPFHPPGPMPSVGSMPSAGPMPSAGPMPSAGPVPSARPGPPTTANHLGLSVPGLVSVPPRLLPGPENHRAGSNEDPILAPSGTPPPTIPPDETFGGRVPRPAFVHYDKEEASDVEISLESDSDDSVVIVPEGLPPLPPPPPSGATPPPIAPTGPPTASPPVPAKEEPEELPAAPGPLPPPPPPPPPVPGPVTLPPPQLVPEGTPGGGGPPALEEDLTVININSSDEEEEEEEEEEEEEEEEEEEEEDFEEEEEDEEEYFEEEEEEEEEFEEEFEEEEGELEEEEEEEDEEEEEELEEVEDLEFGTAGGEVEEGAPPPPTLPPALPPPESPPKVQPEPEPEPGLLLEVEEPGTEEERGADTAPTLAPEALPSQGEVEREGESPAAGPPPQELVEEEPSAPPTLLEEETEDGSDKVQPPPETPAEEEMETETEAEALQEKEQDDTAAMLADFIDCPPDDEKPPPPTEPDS

Estrogen receptor [1] = target: T1, Estrogen receptor (Homo sapiens, UniProt P03372); assay: Inhibition of full length human ERalpha expressed in human HEC1 cells in presence of estradiol by luciferase reporter gene assay; format: cell-based
T1 sequence (P03372 whole entry): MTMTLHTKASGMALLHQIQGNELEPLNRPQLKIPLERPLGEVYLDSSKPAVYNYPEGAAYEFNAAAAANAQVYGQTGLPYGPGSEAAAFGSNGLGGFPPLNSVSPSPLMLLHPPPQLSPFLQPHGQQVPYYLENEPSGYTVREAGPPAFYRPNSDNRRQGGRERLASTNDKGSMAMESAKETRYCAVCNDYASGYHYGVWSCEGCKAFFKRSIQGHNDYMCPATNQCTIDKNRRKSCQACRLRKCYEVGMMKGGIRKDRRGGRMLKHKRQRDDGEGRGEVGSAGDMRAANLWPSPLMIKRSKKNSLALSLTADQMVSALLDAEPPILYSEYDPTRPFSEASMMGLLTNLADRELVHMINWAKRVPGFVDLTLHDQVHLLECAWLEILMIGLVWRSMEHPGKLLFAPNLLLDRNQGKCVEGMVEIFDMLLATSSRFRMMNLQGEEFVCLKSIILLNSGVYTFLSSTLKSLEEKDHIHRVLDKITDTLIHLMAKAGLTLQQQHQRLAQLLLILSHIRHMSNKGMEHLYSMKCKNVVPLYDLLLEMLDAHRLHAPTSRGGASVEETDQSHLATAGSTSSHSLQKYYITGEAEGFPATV

[2] = target: T2, Retinoic acid receptor RXR-alpha (Homo sapiens, UniProt P19793)
T2 sequence (P19793 whole entry): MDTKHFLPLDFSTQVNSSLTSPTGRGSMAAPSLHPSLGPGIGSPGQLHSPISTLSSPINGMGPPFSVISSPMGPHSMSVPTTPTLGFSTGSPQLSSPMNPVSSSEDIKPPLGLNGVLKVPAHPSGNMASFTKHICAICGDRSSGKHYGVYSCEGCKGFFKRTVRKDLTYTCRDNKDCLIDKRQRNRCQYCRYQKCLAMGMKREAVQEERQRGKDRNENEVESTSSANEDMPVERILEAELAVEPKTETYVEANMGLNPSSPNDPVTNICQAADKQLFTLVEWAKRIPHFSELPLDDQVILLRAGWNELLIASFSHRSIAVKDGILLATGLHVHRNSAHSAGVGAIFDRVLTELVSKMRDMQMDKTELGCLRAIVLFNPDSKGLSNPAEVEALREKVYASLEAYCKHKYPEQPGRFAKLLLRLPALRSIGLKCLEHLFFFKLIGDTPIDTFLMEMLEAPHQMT
Description: Binding affinity to human GST-tagged RXRalpha ligand binding domain (223 to 462 residues) expressed in Escherichia coli BL21 assessed as inhibition of 9-cis-RA-induced coactivator recruitment by TR-FRET assay

Estrogen receptor [3] = target: T1, Estrogen receptor; assay: Displacement of fluorescein-labeled PGC1alpha peptide from human GST-tagged ERalpha LBD after 2 hrs in presence of estradiol-beta by TR-FRET assay
Estrogen receptor [4] = target: T1, Estrogen receptor; assay: Displacement of europium-labeled SRC1 peptide from full length human recombinant ERalpha expressed in baculovirus expression system after 1.5 hrs in presence of estradiol-beta by TR-FRET assay
Androgen receptor = target: T3, Androgen receptor (Homo sapiens, UniProt P10275); assay: Inhibition of AR transcriptional activity in human ARR2PB-eGFP expressing LNCaP cells after 3 days by fluorescence assay; format: cell-based
T3 sequence (P10275 whole entry): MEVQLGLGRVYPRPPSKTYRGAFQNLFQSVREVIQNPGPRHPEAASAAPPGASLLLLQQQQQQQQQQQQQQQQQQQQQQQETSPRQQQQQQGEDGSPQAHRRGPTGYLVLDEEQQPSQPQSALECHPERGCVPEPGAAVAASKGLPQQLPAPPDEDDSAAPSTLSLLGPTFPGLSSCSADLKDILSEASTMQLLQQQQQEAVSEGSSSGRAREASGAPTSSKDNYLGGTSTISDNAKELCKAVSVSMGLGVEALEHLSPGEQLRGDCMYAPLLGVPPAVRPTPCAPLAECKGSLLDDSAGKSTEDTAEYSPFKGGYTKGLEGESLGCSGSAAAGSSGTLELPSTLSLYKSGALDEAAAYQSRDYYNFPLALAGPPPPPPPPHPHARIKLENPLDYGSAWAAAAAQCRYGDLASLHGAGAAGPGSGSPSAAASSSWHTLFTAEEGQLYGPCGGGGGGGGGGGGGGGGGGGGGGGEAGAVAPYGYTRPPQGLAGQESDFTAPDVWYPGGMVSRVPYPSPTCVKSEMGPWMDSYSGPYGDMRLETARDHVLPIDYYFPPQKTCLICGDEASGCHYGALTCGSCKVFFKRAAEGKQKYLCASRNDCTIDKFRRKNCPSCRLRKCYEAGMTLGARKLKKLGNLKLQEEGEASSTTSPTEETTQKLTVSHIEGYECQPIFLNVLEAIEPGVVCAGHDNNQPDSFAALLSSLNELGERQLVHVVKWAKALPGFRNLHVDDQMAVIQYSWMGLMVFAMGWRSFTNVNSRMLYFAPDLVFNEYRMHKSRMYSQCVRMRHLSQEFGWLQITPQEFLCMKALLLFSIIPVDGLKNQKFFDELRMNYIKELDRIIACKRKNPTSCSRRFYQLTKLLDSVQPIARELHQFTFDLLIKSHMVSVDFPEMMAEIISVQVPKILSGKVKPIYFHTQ

[5] = target: T4, Peroxisome proliferator-activated receptor alpha (Homo sapiens, UniProt Q07869); assay: Displacement of 5-FAM-labeled NBM131 from human PPARalpha ligand binding domain expressed in human HepG2 cells by fluorescence polarization assay
T4 sequence (Q07869 whole entry): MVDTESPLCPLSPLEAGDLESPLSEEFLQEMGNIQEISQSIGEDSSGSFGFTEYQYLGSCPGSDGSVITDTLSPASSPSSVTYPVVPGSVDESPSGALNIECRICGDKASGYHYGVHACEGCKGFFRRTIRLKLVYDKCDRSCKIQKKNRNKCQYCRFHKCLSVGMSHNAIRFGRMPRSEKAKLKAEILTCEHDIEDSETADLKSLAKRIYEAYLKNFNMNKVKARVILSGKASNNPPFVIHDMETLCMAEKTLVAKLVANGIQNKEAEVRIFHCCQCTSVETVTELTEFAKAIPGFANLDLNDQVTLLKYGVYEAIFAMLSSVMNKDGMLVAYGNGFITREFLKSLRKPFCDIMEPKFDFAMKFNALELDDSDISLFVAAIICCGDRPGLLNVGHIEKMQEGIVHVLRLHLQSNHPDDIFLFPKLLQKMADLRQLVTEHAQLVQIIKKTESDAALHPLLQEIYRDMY

[6] = target: T5, Peroxisome proliferator-activated receptor gamma (Homo sapiens, UniProt P37231); assay: Displacement of 5-FAM-labeled NBM131 from human PPARgamma ligand binding domain expressed in human HepG2 cells by fluorescence polarization assay
T5 sequence (P37231 whole entry): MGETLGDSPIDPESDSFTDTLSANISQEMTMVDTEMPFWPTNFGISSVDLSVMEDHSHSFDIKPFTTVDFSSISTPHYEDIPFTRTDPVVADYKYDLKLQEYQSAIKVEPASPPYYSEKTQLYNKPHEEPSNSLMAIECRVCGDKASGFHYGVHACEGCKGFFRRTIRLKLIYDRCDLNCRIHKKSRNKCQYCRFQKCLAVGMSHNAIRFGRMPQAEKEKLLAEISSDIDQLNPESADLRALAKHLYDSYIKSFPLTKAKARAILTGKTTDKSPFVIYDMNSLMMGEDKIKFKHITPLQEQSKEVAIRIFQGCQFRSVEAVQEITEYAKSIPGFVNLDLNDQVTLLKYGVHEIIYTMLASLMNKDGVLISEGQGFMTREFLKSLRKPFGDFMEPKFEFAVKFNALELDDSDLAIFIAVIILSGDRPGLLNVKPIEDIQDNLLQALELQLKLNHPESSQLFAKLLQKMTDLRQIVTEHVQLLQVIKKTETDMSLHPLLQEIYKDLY

`COC(=O)c1ccc(NC(=O)c2ccc([N+](=O)[O-])c(OCC(C)C)c2)c(OCC(C)C)c1` showed an IC50 (Androgen receptor/PELP1) of 40 nM.
With `O=C(CCCCn1c(=S)[nH]c2ccccc2c1=O)N1CCN(c2ccc(C(F)(F)F)cc2)CC1` the IC50 (Estrogen receptor [1]) was 2300 nM.
In the case of `CC1=C(CCc2nnn[nH]2)c2cc(F)ccc2/C1=C\c1ccc(C(C)C)cc1`, the IC50 [2] is reported as 10000 nM.
With `O=C1NN(c2ccc(Cl)c(Cl)c2)C(=O)C1Cc1c[nH]c2ccccc12` (stereo not given) the IC50 (Estrogen receptor [3]) was 2460 nM.
`CC[C@H](C)[C@@H]1NC(=O)[C@H](NC(=O)[C@@H](N)CCCCN)CSSC[C@@H](C(=O)N[C@@H](CCCNC(=N)N)C(=O)N[C@@H](CC(C)C)C(=O)N[C@@H](CC(C)C)C(=O)N[C@@H](CCC(N)=O)C(=O)O)NC(=O)[C@H](CC(C)C)NC1=O` gave a Ki (Estrogen receptor [4]) of 25 nM.
`c1ccc2c(c1)CC(c1c[nH]c3ccccc13)N2` (stereo not given) showed an IC50 (Androgen receptor) of 310 nM.
`CCOc1cc(Br)cc(CNNC(=O)c2ccc3c(c2)OCCO3)c1O` gave an IC50 (Estrogen receptor [3]) of 2980 nM.
With `CC(C)NC(=O)CSc1nc2ccc(NC(=O)CSc3cccc(Cl)c3)cc2s1` the IC50 (Estrogen receptor [1]) was 6300 nM.
In the case of `CC(C)C[C@H](NC(=O)[C@H](Cc1ccccc1)NC(=O)[C@H](CCC(N)=O)NC(=O)[C@@H](NC(=O)[C@H](CC(C)C)NC(=O)[C@H](CC(C)C)NC(=O)[C@@H]1CCCN1C(=O)[C@H](Cc1cnc[nH]1)NC(=O)[C@H](CC(C)C)NC(=O)[C@H](CCC(N)=O)NC(=O)[C@@H](NC(=O)[C@@H]1CCCN1C(=O)[C@@H]1CCCN1C(=O)[C@@H](NC(=O)[C@@H](NC(=O)[C@H](C)N)[C@@H](C)O)[C@@H](C)O)[C@@H](C)O)[C@@H](C)O)C(=O)N[C@@H](CCCNC(=N)N)C(=O)N[C@H](C(=O)N[C@@H](CC(=O)O)C(=O)O)[C@@H](C)O` (H-ATTPPTQLHPLLTQFLRTD-OH), the Kd [5] is reported as 80 nM and the Kd [6] is reported as 80 nM.
